Test results: patent US20170274014A1, “COMBINATIONS OF LOW, IMMUNE ENHANCING, DOSES OF MTOR INHIBITORS AND CARS” (Novartis AG, priority 2014, published 2017)
Several values for one entry are separate records, joined by “and”; a condition that tells them apart may be missing. Identical values can stand only once. Like-named read-outs stand apart in the source and are kept apart here.

How the values were obtained:
[1] = test system: heterologous influenza strains (A/H1N1 strain A/New Jersey/8/76 and A/H3N2 strain A/Victoria/361/11); design: species or system human; settings: in vivo
[2] = test system: A/H1N1/California/07/2009 influenza; test: Anti-A/H1N1/California/07/2009 influenza IgG and IgM levels in serum before and after vaccination; format: in vivo, human; settings: all p values >0.05 by Kruskal-Wallis rank sum test
Procedure: FIGS. 4A and 4B are graphic representations of IgG and IgM levels before and after influenza vaccination. Levels of anti-A/H1N1/California/07/2009 influenza IgG and IgM were measured in serum obtained from subjects before and 4 weeks post influenza vaccination.

[3] = test system: PD-1-positive CD4, CD8 and PD-1-negative CD4 T cells; design: species or system human; settings: in vivo
[4] = test system: H1N1 A/California/07/2009; test: Hemagglutination inhibition titers after seasonal influenza vaccination, A/H1N1 vaccine strain; format: in vivo, human; settings: for HI GMT A/H1N1, Baseline: 2 weeks prior to influenza vaccination; for HI GMT A/H1N1, Week 4: 4 weeks after influenza vaccination
Procedure: (§1) The trial was observer-blind because the placebo in the RAD001 0.5 mg daily and 20 mg weekly cohorts differed slightly from the RAD001 tablets in those cohorts. […] The treatment duration for all cohorts was 6 weeks during which time subjects underwent safety evaluations in the clinic every 2 weeks. After subjects had been dosed for 4 weeks, RAD001 steady state levels were measured pre-dose and at one hour post dose. After completing the 6 week course of study drug, subjects were given a 2 week drug free break to reverse any possible RAD001-induced immunosuppression, and then were given a 2012 seasonal influenza vaccination (Agrippal®, Novartis Vaccines and Diagnostics, Siena, Italy) containing the strains H1N1 A/California/07/2009, H3N2 A/Victoria/210/2009, B/Brisbane/60/2008. Four weeks after influenza vaccination, subjects had serum collected for influenza titer measurements. Antibody titers to the 3 influenza vaccine strains as well as to 2 heterologous strains (A/H1N1 strain A/New Jersey/8/76 and A/H3N2 strain A/Victoria/361/11) were measured by standard hemagglutination inhibition assay (Kendal, A P et al. (1982) Concepts and procedures for laboratory-based influenza surveillance. Atlanta: Centers for Disease Control and Prevention B17-B35). Levels of IgG and IgM specific for the A/H1N1/California/07/2009 were measured in serum samples taken before and 4 weeks after influenza vaccination as described previously (Spensieri, F. et al. (2013) Proc. Natl. Acad. Sci. USA 110:14330-14335). Results were expressed as fluorescence intensity.
The primary analysis of geometric mean titer ratios was done using a normal Bayesian regression model with non-informative priors. This model was fitted to each antibody titer on the log scale. The primary outcome in each model was the Day 84 measurement. The Day 63 measurement was included in the outcome vector. The model fitted using SAS 9.2 proc mixed with the prior statement. The covariance structure of the matrix was considered as unstructured (option type=UN). A flat prior was used. For the secondary analysis of seroconversion rates, logistic regression was used.
The ability of RAD001 to improve immune function in elderly volunteers was evaluated by measuring the serologic response to the 2012 seasonal influenza vaccine. The hemagglutination inhibition (HI) geometric mean titers (GMT) to each of the 3 influenza vaccine strains at baseline and 4 weeks after influenza vaccination are provided in Table 6. The primary analysis variable was the HI GMT ratio (4 weeks post vaccination/baseline).
Rates of seroconversion 4 weeks after influenza vaccination were also evaluated. Seroconversion was defined as the change from a negative pre-vaccination titer (i.e., HI titer <1:10) to post-vaccination HI titer ≧1:40 or at least 4-fold increase from a non-negative (≧1:10) pre-vaccination HI titer.

[5] = test system: A/H1N1 strain A/New Jersey/8/76; format: in vivo, human
[6] = test system: A/H3N2 strain A/Victoria/361/11; test: Hemagglutination inhibition titers to heterologous A/H3N2 strain not in the vaccine; format: in vivo, human
[7] = test system: 3 influenza vaccine strains; design: species or system human; settings: in vivo
[8] = test system: A/H1N1/California/07/2009; test: Serum anti-influenza IgG and IgM levels before and 4 weeks after vaccination; format: in vivo, human; settings: RAD001 vs placebo treated cohorts
Procedure: as §1, with “After completing the 6 week course of study drug, subjects were given a 2 week drug free break to reverse any possible RAD001-induced immunosuppression, and then were given a 2012 seasonal influenza vaccination (Agrippal®, Novartis Vaccines and Diagnostics, Siena, Italy) containing the strains H1N1 A/California/07/2009, H3N2 A/Victoria/210/2009, B/Brisbane/60/2008. Four weeks after influenza vaccination, subjects had serum collected for influenza titer measurements.” left out

[9] = test system: PD-1 positive CD4 and CD8 T cells; design: species or system human; settings: in vivo
huCART19 cells = test: 4 day co-culture proliferation assay of CART cells with NALM6 target cells; format: cell-based, human; settings: 4 day co-culture with NALM6, 1:1
[10] = human, in vivo
pneumococcal serotypes = settings: all 3 RAD cohorts; 7 of 23 serotypes measured
[11] = test system: humanized CD19 CART cells; settings: RAD001 0.003 mg/kg daily with huCTL019; compared with normal level of huCAR19 proliferation

CO[C@H]1C[C@@H]2CC[C@@H](C)[C@@](O)(O2)C(=O)C(=O)N2CCCC[C@H]2C(=O)O[C@H]([C@H](C)C[C@@H]2CC[C@@H](OCCO)[C@H](OC)C2)CC(=O)[C@H](C)/C=C(\C)[C@@H](O)[C@@H](OC)C(=O)[C@H](C)C[C@H](C)/C=C/C=C/C=C/1C [RAD001, (1R,9S,12S,15R,16E,18R,19R,21R,23S,24E,26E,28E,30S,32S,35R)-1,18-dihydroxy-12-{(1R)-2-[(1S,3R,4R)-4-(2-hydroxyethoxy)-3-methoxycyclohexyl]-1-methylethyl}-19,30-dimethoxy-15,17,21,23,29,35-hexamethyl-11,36-dioxa-4-aza-tricyclo[30.3.1.04,9]hexatriaconta-16,24,26,28-tetraene-2,3,10,14,20-pentaone]
increase above baseline in influenza geometric mean titers to 2 heterologous influenza strains relative to placebo [1]: increase in titers
change from baseline to 4 weeks post vaccination in anti-H1N1 influenza IgG and IgM levels, RAD001 versus placebo cohorts [2]: No significant difference
decrease in PD-1+ CD4 T cells, pooled RAD cohort compared to placebo [3]: 30.2%
decrease in PD-1-positive CD4 T cells as compared to placebo cohort [3]: −37.1-−28.5%
decrease in PD-1-positive CD4 T cells, pooled RAD cohort compared to placebo [3]: 32.7%
decrease in PD-1-positive CD8 T cells as compared to placebo cohort [3]: −43.3-−38.5%
decrease in PD-1-positive CD8 T cells, pooled RAD001 cohort compared to placebo [3]: 37.4% and 41.4%
increase in PD-1-negative CD4 T cells as compared to placebo cohort [3]: 3.0-4.9%
HI GMT ratio A/H1N1 (week 4 post vaccination/baseline) ([4]; 0.5 mg daily, N = 50): 2.6
HI GMT A/H1N1, Baseline ([4]; 0.5 mg daily, N = 50): 102.8
HI GMT A/H1N1, Week 4 ([4]; 0.5 mg daily, N = 50): 190.2
HI GMT ratio A/H1N1 (week 4 post vaccination/baseline) ([4]; 5 mg weekly, N = 49): 2.5
HI GMT A/H1N1, Baseline ([4]; 5 mg weekly, N = 49): 84.2
HI GMT A/H1N1, Week 4 ([4]; 5 mg weekly, N = 49): 198.73
HI GMT ratio A/H1N1 (week 4 post vaccination/baseline) ([4]; 20 mg weekly, N = 49): 1.8
HI GMT A/H1N1, Baseline ([4]; 20 mg weekly, N = 49): 90.1
HI GMT A/H1N1, Week 4 ([4]; 20 mg weekly, N = 49): 129.7
Percent of subjects with seroconversion to influenza H1N1 4 weeks after vaccination ([4]; Intention to Treat Population, 0.5 mg, N = 48): 27%
Percent of subjects with seroconversion to influenza H1N1 4 weeks after vaccination ([4]; Intention to Treat Population, 5 mg, N = 49): 27%
Percent of subjects with seroconversion to influenza H1N1 4 weeks after vaccination ([4]; Intention to Treat Population, 20 mg, N = 48): 17%
Percent of subjects with seroconversion to influenza H1N1 4 weeks after vaccination ([4]; Subjects with Baseline Titers <=40, 0.5 mg): 42%
Percent of subjects with seroconversion to influenza H1N1 4 weeks after vaccination ([4]; Subjects with Baseline Titers <=40, 5 mg): 45%
Percent of subjects with seroconversion to influenza H1N1 4 weeks after vaccination ([4]; Subjects with Baseline Titers <=40, 20 mg): 36%
Percentage of subjects who seroconvert to heterologous A/H1N1 strain A/NewJersey/8/76 4 weeks after seasonal influenza vaccination ([5]; 0.5 mg daily): 17%
Percentage of subjects who seroconvert to heterologous A/H1N1 strain A/NewJersey/8/76 4 weeks after seasonal influenza vaccination ([5]; 5 mg weekly): 16%
Percentage of subjects who seroconvert to heterologous A/H1N1 strain A/NewJersey/8/76 4 weeks after seasonal influenza vaccination ([5]; 20 mg weekly): 8%
Increase in the HI GMT ratio for the heterologous strain ([5]; RAD001 vs placebo cohorts): higher in the RAD001 as compared to placebo cohorts
Percentage of subjects who seroconvert to heterologous A/H3N2 strain A/Victoria/361/11 4 weeks after seasonal influenza vaccination ([6]; 0.5 mg daily): 38%
Percentage of subjects who seroconvert to heterologous A/H3N2 strain A/Victoria/361/11 4 weeks after seasonal influenza vaccination ([6]; 5 mg weekly, * p < 0.05 vs placebo): 39%*
Percentage of subjects who seroconvert to heterologous A/H3N2 strain A/Victoria/361/11 4 weeks after seasonal influenza vaccination ([6]; 20 mg weekly, * p < 0.05 vs placebo): 40%*
Increase in the HI GMT ratio for the heterologous strain ([6]; RAD001 vs placebo cohorts): higher in the RAD001 as compared to placebo cohorts
H3N2 heterologous strain seroconversion rate ([6]; pooled RAD001 cohorts, versus 20% for placebo, p=0.007): 39%
Primary endpoint of the study (HI GMT ratio >=1.2-fold relative to placebo in at least 2 of 3 strains) [7]: met the GMT primary endpoint
RAD001-associated increase in influenza titers in subgroup analysis [7]: greater RAD001-associated increase in titers than did the ITT population
Post-vaccination anti-influenza IgM and IgG levels [8]: did not differ between RAD001 and placebo treated cohorts
Decrease in PD-1 positive CD4 T cells compared to placebo cohort [9]: 30.2% and 32.7%
Decrease in PD-1 positive CD8 T cells compared to placebo cohort [9]: 37.4% and 41.4%
Percentage of CD4 PD-1 positive T cells [9]: decreased from baseline
Percentage of CD8 PD-1 positive cells [9]: decreased from baseline
Percentage of PD-1 negative CD4 T cells [9]: increased
RAD001 concentration in whose presence huCART19 cells expanded (lesser extent at higher concentrations) (huCART19 cells): less than 0.016 nM
Deaths during the study [10]: No deaths occurred
Incidence of treatment-related AE: Blood cholesterol increased [10]: 2 (3.8%) n (%)
Most common RAD001-related AE [10]: mouth ulcer
Tolerability [10]: well tolerated
Pneumococcal serotypes with increased antibody titers compared to placebo (pneumococcal serotypes): 6/7
CAR T cell proliferation in vivo (CD4+ and CD8+ CAR T cells) [11]: enhancement in CAR T cell proliferation
